Values after ≈ are worked out from the molar mass of the structure shown.
What was measured:
[1] = tested on: Mycobacterium tuberculosis (Mtb) H37Rv; experiment: In vitro antituberculous activity test, Microplate Alamar Blue Assay; assay type: cell-based; details: versus linezolid
[2] = tested on: Enterococcus faecalis, vancomycin resistant; experiment: In vitro antibacterial activity test, Agar Dilution MIC; details: 18 h
[3] = tested on: Staphylococcus pneumoniae, penicillin non-susceptible; experiment: as above; details: 18 h
[4] = tested on: Coagulase negative staphylococci, methicillin susceptible; experiment: as above; details: 18 h
[5] = tested on: Staphylococcus aureus, methicillin susceptible; experiment: as above; details: 18 h
Staphylococcus pyogenes = experiment: as above; details: Staphylococcus aureus, 18 h
[6] = tested on: Staphylococcus pneumoniae, penicillin susceptible; experiment: as above; details: 18 h
[7] = tested on: Coagulase negative staphylococci, methicillin resistant; experiment: as above; details: 18 h
[8] = tested on: Enterococcus faecium, vancomycin susceptible; experiment: as above; details: 18 h
[9] = tested on: Haemophilus influenzae, beta-lactamase-positive; experiment: as above; details: 18 h
[10] = tested on: Enterococcus faecium, vancomycin resistant; experiment: as above; details: 18 h
[11] = tested on: Staphylococcus aureus, methicillin resistant; experiment: as above; details: 18 h
[12] = tested on: Enterococcus faecalis, vancomycin susceptible; experiment: as above; details: 18 h
[13] = tested on: Staphylococcus agalactiae; experiment: as above; details: 18 h
[14] = tested on: MRSA and other gram positive bacteria; Staphylococcus sp., Enterococcus sp. and Haemophilus influenza; experiment: In vitro antibacterial activity test, overall statements on the strain panel; details: various strains of Table 1
CYP2C9 = CYP2C9 (Homo sapiens, UniProt P11712); experiment: CYP450 remaining test (Vivid CYP450 Screening Kits)
[15] = Human hepatic microsomal stability test; assay type: in vitro ADME; details: human hepatic microsomes
hERG = hERG (Homo sapiens, UniProt Q12809); experiment: hERG assay for cardiac toxicity, automated patch-clamp; assay type: cell-based
[16] = tested on: CYP1A2, CYP2D6, CYP2C9, CYP3A4; experiment: in vitro; assay type: in vitro ADME; details: human
CYP1A2 = target: T1, CYP1A2 (Homo sapiens, UniProt P05177); experiment: CYP450 remaining test (Vivid CYP450 Screening Kits); assay type: in vitro ADME; details: isozyme 1A2
T1 construct: purchased Invitrogen

CYP2D6 = CYP2D6 (Homo sapiens, UniProt P10635); experiment: as above
Protocol: (§1) CYP450 remaining test was conducted using Vivid® CYP450 Screening Kits Protocol (Invitrogen), and hERG assay for cardiac toxicity test was conducted using an automated patch-clamp device, NPC-16 Patchliner (Nanion Technologies, Munchen, Germany) according to the method of C. Farre, et al. (Combinatorial Chemistry & High Throughput Screening, 2009, 12, 24-37). And, human hepatic microsomal stability test was conducted according to the method of W. A. Korfmacher, et al. (Rapid Commun. Mass Spectrom. 13, 901-907 (1999)).

CYP3A4 = CYP3A4 (Homo sapiens, UniProt P08684); experiment: as above
Protocol: as §1

[17] = automated patch-clamp, NPC-16 Patchliner

Sequence of hERG (Q12809 whole entry): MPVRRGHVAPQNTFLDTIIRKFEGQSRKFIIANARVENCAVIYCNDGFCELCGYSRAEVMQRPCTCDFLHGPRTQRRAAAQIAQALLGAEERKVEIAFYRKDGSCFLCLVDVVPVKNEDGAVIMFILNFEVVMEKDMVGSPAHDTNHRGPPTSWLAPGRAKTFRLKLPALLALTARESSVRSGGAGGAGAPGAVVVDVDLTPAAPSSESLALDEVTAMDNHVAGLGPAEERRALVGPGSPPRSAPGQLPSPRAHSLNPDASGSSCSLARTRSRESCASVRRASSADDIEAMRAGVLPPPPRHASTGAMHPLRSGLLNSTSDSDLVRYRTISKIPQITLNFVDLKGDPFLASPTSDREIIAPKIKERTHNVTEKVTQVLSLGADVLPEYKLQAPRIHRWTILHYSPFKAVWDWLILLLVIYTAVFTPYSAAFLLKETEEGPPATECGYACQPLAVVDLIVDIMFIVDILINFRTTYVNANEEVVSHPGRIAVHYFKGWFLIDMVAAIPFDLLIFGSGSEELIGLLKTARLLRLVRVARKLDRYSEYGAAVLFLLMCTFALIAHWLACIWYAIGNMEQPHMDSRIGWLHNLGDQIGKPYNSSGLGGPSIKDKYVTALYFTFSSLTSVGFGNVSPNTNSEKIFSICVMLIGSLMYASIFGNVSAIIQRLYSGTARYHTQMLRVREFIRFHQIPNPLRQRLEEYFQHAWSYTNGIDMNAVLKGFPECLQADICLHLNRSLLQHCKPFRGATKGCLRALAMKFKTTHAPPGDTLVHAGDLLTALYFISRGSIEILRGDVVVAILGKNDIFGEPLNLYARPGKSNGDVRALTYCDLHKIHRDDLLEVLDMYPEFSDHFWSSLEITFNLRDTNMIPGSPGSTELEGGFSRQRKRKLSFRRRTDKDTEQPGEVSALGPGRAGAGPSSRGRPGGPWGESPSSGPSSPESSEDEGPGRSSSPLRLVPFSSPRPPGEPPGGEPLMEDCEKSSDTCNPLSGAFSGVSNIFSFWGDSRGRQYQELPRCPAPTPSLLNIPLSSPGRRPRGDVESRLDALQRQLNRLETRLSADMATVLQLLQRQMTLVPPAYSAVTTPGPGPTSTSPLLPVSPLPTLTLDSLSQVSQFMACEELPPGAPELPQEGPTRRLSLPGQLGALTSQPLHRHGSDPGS
Sequence of CYP3A4 (P08684 whole entry): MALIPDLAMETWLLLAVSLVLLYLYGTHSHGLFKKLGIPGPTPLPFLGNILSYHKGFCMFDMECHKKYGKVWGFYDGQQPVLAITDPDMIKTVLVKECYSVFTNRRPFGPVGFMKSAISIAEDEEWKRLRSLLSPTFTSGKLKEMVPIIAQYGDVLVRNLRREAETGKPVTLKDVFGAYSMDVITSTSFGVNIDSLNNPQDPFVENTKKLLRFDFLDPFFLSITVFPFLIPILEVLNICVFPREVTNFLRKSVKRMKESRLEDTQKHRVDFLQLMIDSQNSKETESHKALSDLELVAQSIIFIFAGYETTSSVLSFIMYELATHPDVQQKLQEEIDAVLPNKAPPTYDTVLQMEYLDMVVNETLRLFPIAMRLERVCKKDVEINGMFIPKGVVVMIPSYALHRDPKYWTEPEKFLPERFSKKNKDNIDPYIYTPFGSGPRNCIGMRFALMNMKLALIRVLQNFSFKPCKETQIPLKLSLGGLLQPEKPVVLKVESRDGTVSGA
Sequence of CYP2D6 (P10635 whole entry): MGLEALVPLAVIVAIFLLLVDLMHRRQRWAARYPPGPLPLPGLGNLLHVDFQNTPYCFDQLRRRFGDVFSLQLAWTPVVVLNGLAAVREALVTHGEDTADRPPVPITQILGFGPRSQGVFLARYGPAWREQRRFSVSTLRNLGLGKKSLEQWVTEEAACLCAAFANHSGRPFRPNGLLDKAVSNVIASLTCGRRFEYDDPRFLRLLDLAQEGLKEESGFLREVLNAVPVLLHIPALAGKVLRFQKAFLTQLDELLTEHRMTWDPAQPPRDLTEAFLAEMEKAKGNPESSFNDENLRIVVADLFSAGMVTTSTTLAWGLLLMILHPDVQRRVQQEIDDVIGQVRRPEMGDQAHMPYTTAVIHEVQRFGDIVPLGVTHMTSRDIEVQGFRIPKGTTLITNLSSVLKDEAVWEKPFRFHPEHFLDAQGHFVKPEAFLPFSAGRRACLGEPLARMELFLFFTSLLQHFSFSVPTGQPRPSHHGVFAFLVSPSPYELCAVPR
Sequence of CYP2C9 (P11712 whole entry): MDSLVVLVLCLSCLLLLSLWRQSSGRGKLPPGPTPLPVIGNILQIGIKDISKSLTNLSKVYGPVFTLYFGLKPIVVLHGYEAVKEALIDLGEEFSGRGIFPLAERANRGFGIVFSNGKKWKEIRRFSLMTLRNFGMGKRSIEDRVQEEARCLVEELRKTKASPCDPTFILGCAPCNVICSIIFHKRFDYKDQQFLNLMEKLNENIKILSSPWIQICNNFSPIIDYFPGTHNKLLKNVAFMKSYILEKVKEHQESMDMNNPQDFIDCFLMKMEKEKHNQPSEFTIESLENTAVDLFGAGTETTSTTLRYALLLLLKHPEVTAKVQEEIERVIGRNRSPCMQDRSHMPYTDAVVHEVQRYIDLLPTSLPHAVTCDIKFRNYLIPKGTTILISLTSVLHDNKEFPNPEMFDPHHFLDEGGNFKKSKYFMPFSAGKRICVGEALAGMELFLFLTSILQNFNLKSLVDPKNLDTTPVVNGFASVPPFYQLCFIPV
T1 sequence (P05177 whole entry): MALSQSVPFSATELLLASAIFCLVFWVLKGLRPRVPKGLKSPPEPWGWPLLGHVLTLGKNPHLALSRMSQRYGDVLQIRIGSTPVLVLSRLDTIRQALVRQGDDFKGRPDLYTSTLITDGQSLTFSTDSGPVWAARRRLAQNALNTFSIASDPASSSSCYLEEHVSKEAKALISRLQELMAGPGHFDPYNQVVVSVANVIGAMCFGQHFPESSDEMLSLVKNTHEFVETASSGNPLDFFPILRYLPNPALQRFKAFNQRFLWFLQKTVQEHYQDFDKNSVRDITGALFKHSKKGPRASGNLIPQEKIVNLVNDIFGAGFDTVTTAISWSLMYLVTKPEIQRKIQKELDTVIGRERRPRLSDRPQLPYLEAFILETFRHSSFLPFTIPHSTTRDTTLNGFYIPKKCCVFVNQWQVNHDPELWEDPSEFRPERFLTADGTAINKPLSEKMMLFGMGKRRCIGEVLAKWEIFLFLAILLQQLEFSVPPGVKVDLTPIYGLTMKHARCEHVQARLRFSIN

Compound | antituberculous activity compared to linezolid [1] | MIC [2] | MIC [3] | MIC [4] | MIC [5] | MIC (Staphylococcus pyogenes) | MIC [6] | MIC [7] | MIC [8] | MIC [9] | MIC [10] | MIC [11] | MIC [12] | MIC [13] | antibacterial activity against the strain panel [14] | also measured
CC(=O)NC[C@H]1CN(c2ccc(N3CC4CC(=CC#N)CC4C3)c(F)c2)C(=O)O1 (stereo partly drawn) [Example 1, N-[[(5S)-3-[4-(5-cyanomethylene-hexahydro-cyclopenta[c]pyrrol-2-yl)-3-fluorophenyl]-2-oxo-5-oxazolidinyl]methyl]acetamide] | antibacterial effects equivalent to linezolid | 1.5 µg/mL (≈ 3.76 µM) | 0.7 µg/mL (≈ 1.76 µM) | 3.1 µg/mL (≈ 7.78 µM) | 3.1 µg/mL (≈ 7.78 µM) | 0.7 µg/mL (≈ 1.76 µM) | 0.7 µg/mL (≈ 1.76 µM) | 3.1 µg/mL (≈ 7.78 µM) | 0.7 µg/mL (≈ 1.76 µM) | 0.7 µg/mL (≈ 1.76 µM) | 1.5 µg/mL (≈ 3.76 µM) | 3.1 µg/mL (≈ 7.78 µM) | 1.5 µg/mL (≈ 3.76 µM) | 1.5 µg/mL (≈ 3.76 µM) |  | 
CC(=O)NC[C@H]1CN(c2ccc(N3CC4C=C(CC#N)CC4C3)c(F)c2)C(=O)O1 (stereo partly drawn) [Example 2, N-[[(5S)-3-[4-(5-cyanomethyl-3,3a,4,6a-tetrahydro-1H-cyclopenta[c]pyrrol-2-yl)-3-fluorophenyl]-2-oxo-5-oxazolidinyl]methyl]acetamide] | antibacterial effects equivalent to linezolid | 3.1 µg/mL (≈ 7.78 µM) | 0.7 µg/mL (≈ 1.76 µM) | 3.1 µg/mL (≈ 7.78 µM) | 3.1 µg/mL (≈ 7.78 µM) | 0.7 µg/mL (≈ 1.76 µM) | 0.7 µg/mL (≈ 1.76 µM) | 3.1 µg/mL (≈ 7.78 µM) | 1.5 µg/mL (≈ 3.76 µM) | 1.5 µg/mL (≈ 3.76 µM) | 1.5 µg/mL (≈ 3.76 µM) | 1.5 µg/mL (≈ 3.76 µM) | 1.5 µg/mL (≈ 3.76 µM) | 1.5 µg/mL (≈ 3.76 µM) | high antibacterial activities | 
CC(=O)NC[C@H]1CN(c2ccc(N3CC4C=C(C#N)CC4C3)c(F)c2)C(=O)O1 (stereo partly drawn) [Example 3, N-[[(5S)-3-[4-(5-cyano-3,3a,4,6a-tetrahydro-1H-cyclopenta[c]pyrrol-2-yl)-3-fluorophenyl]-2-oxo-5-oxazolidinyl]methyl]acetamide] | more excellent antibacterial activities than linezolid | 3.1 µg/mL (≈ 8.06 µM) | 0.3 µg/mL (≈ 0.78 µM) | 3.1 µg/mL (≈ 8.06 µM) | 3.1 µg/mL (≈ 8.06 µM) | 0.7 µg/mL (≈ 1.82 µM) | 0.7 µg/mL (≈ 1.82 µM) | 3.1 µg/mL (≈ 8.06 µM) | 1.5 µg/mL (≈ 3.9 µM) | 0.3 µg/mL (≈ 0.78 µM) | 1.5 µg/mL (≈ 3.9 µM) | 1.5 µg/mL (≈ 3.9 µM) | 3.1 µg/mL (≈ 8.06 µM) | 1.5 µg/mL (≈ 3.9 µM) | high antibacterial activities | 
O=C1CC2CN(c3ccc(N4C[C@H](Cn5ccnn5)OC4=O)cc3F)CC2C1 (stereo partly drawn) [Example 4, (5R)-3-[3-fluoro-4-(5-oxo-hexahydro-cyclopenta[c]pyrrol-2-yl)phenyl]-5-(1,2,3-triazol-1-ylmethyl)oxazolidin-2-one] | more excellent antibacterial activities than linezolid | 1.5 µg/mL (≈ 3.89 µM) | 0.3 µg/mL (≈ 0.778 µM) | 3.1 µg/mL (≈ 8.04 µM) | 3.1 µg/mL (≈ 8.04 µM) | 0.3 µg/mL (≈ 0.778 µM) | 0.7 µg/mL (≈ 1.82 µM) | 3.1 µg/mL (≈ 8.04 µM) | 1.5 µg/mL (≈ 3.89 µM) | 1.5 µg/mL (≈ 3.89 µM) | 3.1 µg/mL (≈ 8.04 µM) | 3.1 µg/mL (≈ 8.04 µM) | 1.5 µg/mL (≈ 3.89 µM) | 0.7 µg/mL (≈ 1.82 µM) | high antibacterial activities | activity (CYP2C9): 73.7%; Human Hepatic Microsomal stability Remaining activity after 30 minutes (%) [15]: 83.8%; IC50 (hERG; [17]): 80.5 µM; hERG Max, (hERG; [17]): 38%; hERG bonding (hERG; in vitro hERG assay, cardiac toxicity): does not have hERG bonding; activity [16]: 73.6 to 106%; activity (CYP1A2): 94.9%; activity (CYP2D6): 108%; activity (CYP3A4): 106%
O=C1O[C@@H](Cn2ccnn2)CN1c1ccc(N2CC3CC(=NO)CC3C2)c(F)c1 (stereo partly drawn) [Example 5, (5R)-3-[3-fluoro-4-(5-hydroxyimino-hexahydro-cyclopenta[c]pyrrol-2-yl)phenyl]-5-(1,2,3-triazol-1-ylmethyl)oxazolidin-2-one] |  | 6.2 µg/mL (≈ 15.5 µM) | 0.7 µg/mL (≈ 1.75 µM) | 6.2 µg/mL (≈ 15.5 µM) | 6.2 µg/mL (≈ 15.5 µM) | 0.7 µg/mL (≈ 1.75 µM) | 1.5 µg/mL (≈ 3.75 µM) | 6.2 µg/mL (≈ 15.5 µM) | 3.1 µg/mL (≈ 7.74 µM) | 3.1 µg/mL (≈ 7.74 µM) | 6.2 µg/mL (≈ 15.5 µM) | 6.2 µg/mL (≈ 15.5 µM) | 6.2 µg/mL (≈ 15.5 µM) | 1.5 µg/mL (≈ 3.75 µM) |  | 
CON=C1CC2CN(c3ccc(N4C[C@H](Cn5ccnn5)OC4=O)cc3F)CC2C1 (stereo partly drawn) [Example 6, (5R)-3-[3-fluoro-4-(5-methoxyimino-hexahydro-cyclopenta[c]pyrrol-2-yl)phenyl]-5-(1,2,3-triazol-1-ylmethyl)oxazolidin-2-one] | antibacterial effects equivalent to linezolid | 3.1 µg/mL (≈ 7.48 µM) | 0.1 µg/mL (≈ 0.241 µM) | 6.2 µg/mL (≈ 15 µM) | 6.2 µg/mL (≈ 15 µM) | 0.1 µg/mL (≈ 0.241 µM) | 0.3 µg/mL (≈ 0.724 µM) | 6.2 µg/mL (≈ 15 µM) | 1.5 µg/mL (≈ 3.62 µM) | 0.3 µg/mL (≈ 0.724 µM) | 1.5 µg/mL (≈ 3.62 µM) | 6.2 µg/mL (≈ 15 µM) | 1.5 µg/mL (≈ 3.62 µM) | 0.3 µg/mL (≈ 0.724 µM) |  | 
N#CC=C1CC2CN(c3ccc(N4C[C@H](Cn5ccnn5)OC4=O)cc3F)CC2C1 (stereo partly drawn) [Example 7, (5R)-3-[4-(5-cyanomethylene-hexahydro-cyclopenta[c]pyrrol-2-yl)-3-fluorophenyl]-5-(1,2,3-triazol-1-ylmethyl)oxazolidin-2-one] | antibacterial effects equivalent to linezolid | 3.1 µg/mL (≈ 7.59 µM) | 0.3 µg/mL (≈ 0.735 µM) | 1.5 µg/mL (≈ 3.67 µM) | 1.5 µg/mL (≈ 3.67 µM) | 0.3 µg/mL (≈ 0.735 µM) | 0.7 µg/mL (≈ 1.71 µM) | 1.5 µg/mL (≈ 3.67 µM) | 1.5 µg/mL (≈ 3.67 µM) | 0.3 µg/mL (≈ 0.735 µM) | 1.5 µg/mL (≈ 3.67 µM) | 0.7 µg/mL (≈ 1.71 µM) | 1.5 µg/mL (≈ 3.67 µM) | 0.7 µg/mL (≈ 1.71 µM) | high antibacterial activities | 
N#CCC1=CC2CN(c3ccc(N4C[C@H](Cn5ccnn5)OC4=O)cc3F)CC2C1 (stereo partly drawn) [Example 8, (5R)-3-[4-(5-cyanomethyl-3,3a,4,6a-tetrahydro-1H-cyclopenta[c]pyrrol-2-yl)-3-fluorophenyl]-5-(1,2,3-triazol-1-ylmethyl)oxazolidin-2-one] |  | 6.2 µg/mL (≈ 15.2 µM) | 1.5 µg/mL (≈ 3.67 µM) | 6.2 µg/mL (≈ 15.2 µM) | 6.2 µg/mL (≈ 15.2 µM) | 1.5 µg/mL (≈ 3.67 µM) | 3.1 µg/mL (≈ 7.59 µM) | 6.2 µg/mL (≈ 15.2 µM) | 6.2 µg/mL (≈ 15.2 µM) | 1.5 µg/mL (≈ 3.67 µM) | 6.2 µg/mL (≈ 15.2 µM) | 1.5 µg/mL (≈ 3.67 µM) | 6.2 µg/mL (≈ 15.2 µM) | 3.1 µg/mL (≈ 7.59 µM) |  | 
N#CC1=CC2CN(c3ccc(N4C[C@H](Cn5ccnn5)OC4=O)cc3F)CC2C1 (stereo partly drawn) [Example 9, (5R)-3-[4-(5-cyano-3,3a,4,6a-tetrahydro-1H-cyclopenta[c]pyrrol-2-yl)-3-fluorophenyl]-5-(1,2,3-triazol-1-ylmethyl)oxazolidin-2-one] |  | 3.1 µg/mL (≈ 7.86 µM) | 0.7 µg/mL (≈ 1.77 µM) | 3.1 µg/mL (≈ 7.86 µM) | 3.1 µg/mL (≈ 7.86 µM) | 0.7 µg/mL (≈ 1.77 µM) | 1.5 µg/mL (≈ 3.8 µM) | 3.1 µg/mL (≈ 7.86 µM) | 3.1 µg/mL (≈ 7.86 µM) | 0.7 µg/mL (≈ 1.77 µM) | 3.1 µg/mL (≈ 7.86 µM) | 1.5 µg/mL (≈ 3.8 µM) | 3.1 µg/mL (≈ 7.86 µM) | 1.5 µg/mL (≈ 3.8 µM) |  | 
CC(=O)NC[C@H]1CN(c2ccc(N3CCOCC3)c(F)c2)C(=O)O1 [LZD, linezolid, reference compound] |  | 1.5 µg/mL (≈ 4.45 µM) | 0.7 µg/mL (≈ 2.07 µM) | 3.1 µg/mL (≈ 9.19 µM) | 3.1 µg/mL (≈ 9.19 µM) | 0.7 µg/mL (≈ 2.07 µM) | 0.7 µg/mL (≈ 2.07 µM) | 3.1 µg/mL (≈ 9.19 µM) | 1.5 µg/mL (≈ 4.45 µM) | 0.7 µg/mL (≈ 2.07 µM) | 1.5 µg/mL (≈ 4.45 µM) | 3.1 µg/mL (≈ 9.19 µM) | 1.5 µg/mL (≈ 4.45 µM) | 1.5 µg/mL (≈ 4.45 µM) |  | 
CC(=O)N1CCN(c2ccc(OCC3COC(Cn4ccnc4)(c4ccc(Cl)cc4Cl)O3)cc2)CC1 (centres unmarked) [ketoconazole, reference compound] |  |  |  |  |  |  |  |  |  |  |  |  |  |  |  | activity (CYP3A4): 2.3%
C=C[C@H]1C[N@@]2CC[C@H]1C[C@@H]2[C@@H](O)c1ccnc2ccc(OC)cc12 [quinidine, reference compound] |  |  |  |  |  |  |  |  |  |  |  |  |  |  |  | activity (CYP2D6): 11.1%
Nc1ccc(S(=O)(=O)Nc2ccnn2-c2ccccc2)cc1 [sulfaphenazol, reference compound] |  |  |  |  |  |  |  |  |  |  |  |  |  |  |  | activity (CYP2C9): -3.5%
